Laboratory results as given in PMC6897945, “CytA, a reductase in the cytorhodin biosynthesis pathway, inactivates anthracycline drugs in Streptomyces” (Communications Biology, 2019).
Values after ≈ are worked out from the molar mass of the structure shown. Where two headings read alike, the source gives them in different places.

Tests used:
[1] = test system: CytA; assay: Enzyme kinetics of CytA (formation of deglycosylation products, anaerobic); assay type: biochemical, Streptomyces sp. SCSIO 1666; conditions: substrate of CytA; 0.5 μM CytA, 20 μM NADH, anaerobic
Method: Enzymatic reactions were carried out under anaerobic conditions in an anaerobic workstation (Don Whitley Scientific A45) containing a gas phase of N2/H2/CO2 (80:10: 10%, by vol.). ^1H, ^13C, and 2D (COSY, HMQC, HMBC and NOESY) NMR spectra were recorded at 25 °C with an Avance 700 MHz spectrometer instruments (Bruker). High-resolution mass spectra were obtained with a Maxis quadrupole-time-of-flight mass spectrometer (Bruker).
To validate the in vitro biochemical activities of CytA, we overexpressed and purified this enzyme as a soluble N-terminally His6-tagged protein from E. coli (Fig. 2a). Tris-Cl buffer was made O2 free by boiling, followed by cooling under N2 flow; NADH stock solution (dissolved in Tris-Cl), substrate stock solution (dissolved in DMSO), and enzyme solution (dissolved in Tris-Cl supplemented with 10% glycerin) were subjected to O2 eliminating process in the anaerobic workstations for at least two cycles (40 min for one cycle). CytA enzymatic activity was tested in 50 μL volume containing 50 mM Tris-Cl (pH 8.0), 25 μM substrate, 0.5 μM CytA, and 20 μM NADH, at 37 °C for 30 min. The reaction was quenched with the addition to 2 volumes MeOH. After centrifugation to remove protein, supernatants were analyzed with Agilent HPLC equipment using a Phenomenex Prodigy ODS column S5 (150 × 4.60 mm, 5 μ) and UV detection at 254 and 500 nm. Samples were eluted with a gradient elution of phase A containing 0.1% TFA in ddH2O and phase B containing 100% acetonitrile, at a flow rate of 1 mL/min.
Kinetic analyses of CytA with putative substrates 6–10, daunorubicin, doxorubicin, idarubicin, epirubicin and pirarubicin, involved a reaction volume of 20 μL consisting of 50 mM Tris-Cl (pH 8.0), 0.5 μM CytA, 20 μM NADH, […]
All assays were performed in triplicate and Km and Vmax values were calculated on the basis of curve fitting to the Michaelis-Menten equation: v = Vmax *[S]/(Km + [S]) (Supplementary Fig. 7).
For kinetics of CytA, Origin 9.0 (OriginLab Co.) was used to analyze on the basis of curve fitting to the Michaelis-Menten equation. Experiments were performed in triplicate independently. For antibacterial activity, experiments were performed in triplicate using 96-well plates.

[2] = test system: Staphylococcus aureus ATCC 29213; assay: Antibacterial activity, broth dilution MIC; assay type: cell-based
Method: (§1) The antibacterial activities of compounds 1–13 were assessed using twofold serial dilutions of antibacterial agents in MH broth, according to previously reported standard methods provided by Clinical and Laboratory Standards Institute (CLSI)[30]. These compounds were tested for their antibacterial activities against Bacillus subtilis BS01, Staphyloccocus aureus ATCC 29213, Staphyloccocus aureus 745524, Bacillus thuringiensis BT01, and Enterococcus faecalis ATCC 29212 using a broth dilution method.

[3] = test system: B. thuringiensis BT01; assay: Antibacterial activity, broth dilution MIC; assay type: cell-based; conditions: Bacillus thuringiensis
Method: as §1

[4] = test system: E. faecalis ATCC 29212; assay: Antibacterial activity, broth dilution MIC; assay type: cell-based; conditions: Enterococcus faecalis
Method: as §1

[5] = test system: B. subtilis BS01; assay: Antibacterial activity, broth dilution MIC; assay type: cell-based; conditions: Bacillus subtilis
Method: as §1

[6] = test system: Staphylococcus aureus 745524; assay: Antibacterial activity, broth dilution MIC; assay type: cell-based
Method: as §1

[7] = test system: A549 human lung cancer cell line; assay: Cytotoxic activity, MTT method; assay type: cell-based; conditions: A549, read-out: Cytotoxic activities IC50, A549
Text: (§2) All data were obtained in triplicate and are presented as means.

[8] = test system: HeLa human cervical carcinoma cell line; assay: Cytotoxic activity, MTT method; assay type: cell-based; conditions: read-out: Cytotoxic activities IC50, HeLa
Text: as §2

[9] = test system: HepG2 human hepatocellular carcinoma cell line; assay: Cytotoxic activity, MTT method; assay type: cell-based; conditions: HepG2, read-out: Cytotoxic activities IC50, HepG2
Text: as §2

[10] = test system: MDA-MB-468 human triple negative breast adenocarcinoma cell line; assay: Cytotoxic activity, MTT method; assay type: cell-based; conditions: MDA-MB-468, read-out: Cytotoxic activities IC50, MDA-MB-468
Text: as §2

[11] = test system: MDA-MB-231 human triple negative breast adenocarcinoma cell line; assay: Cytotoxic activity, MTT method; assay type: cell-based; conditions: MDA-MB-231, read-out: Cytotoxic activities IC50, MDA-MB-231
Text: as §2

[12] = test system: MCF-7 human breast adenocarcinoma cell line; assay: Cytotoxic activity, MTT method; assay type: cell-based; conditions: MCF7, read-out: Cytotoxic activities IC50, MCF-7
Text: as §2

[13] = test system: RKO human colorectal carcinoma cell line; assay: Cytotoxic activity, MTT method; assay type: cell-based; conditions: read-out: Cytotoxic activities IC50, RKO
Text: as §2

[14] = Cytotoxic activity, MTT method; assay type: cell-based; conditions: human
Text: as §2

[15] = ATCC29213, Staphylococcus aureus ATCC 29213, triplicate, read-out: MIC values, SA1
[16] = B. thuringiensis BT01, triplicate, read-out: MIC values, BT
[17] = ATCC29212, E. faecalis ATCC 29212, triplicate, read-out: MIC values, EF
[18] = B. subtilis BS01, triplicate, read-out: MIC values, BS
[19] = Staphylococcus aureus 745524, triplicate, read-out: MIC values, SA2
[20] = Staphylococcus aureus, ATCC29213, read-out: MIC values, SA1
[21] = ATCC29212, read-out: MIC values, EF
[22] = Staphylococcus aureus, 745524, read-out: MIC values, SA2
[23] = Huvec-12 normal cell line, read-out: Cytotoxic activities IC50, Huvec-12
[24] = L02 normal cell line, read-out: Cytotoxic activities IC50, L02

Question: Which Km [1] does the source give for COc1cccc2c1C(=O)c1c(O)c3c(c(O)c1C2=O)C[C@@](O)(C(=O)CO)C[C@@H]3O[C@H]1C[C@H](N)[C@H](O[C@@H]2CCCCO2)[C@H](C)O1 [Compound 26, pirarubicin, reference compound] here?
Answer: The Km was 49.3 µM.

Question: And the kcat [1]?
Answer: The kcat was 0.0123 s⁻¹.

Question: Which results are given for CC(=O)[C@]1(O)Cc2c(O)c3c(c(O)c2[C@@H](O[C@H]2C[C@H](N)[C@H](O)[C@H](C)O2)C1)C(=O)c1ccccc1C3=O [Compound 24, idarubicin, reference compound]?
Answer: Km [1]: 28.5 µM; kcat [1]: 0.00733 s⁻¹

Question: For CC[C@@]1(O)CCc2c(O)c3c(c(O)c2C1)C(=O)c1cccc(O)c1C3=O [Compound 12], which MIC [2, 15] is on record?
Answer: Its MIC is over 32 µg/mL.

Question: What about the MIC [3, 16] of the same molecule?
Answer: The MIC was over 32 µg/mL.

Question: What about the MIC [4, 17] of the same molecule?
Answer: Its MIC is over 32 µg/mL.

Question: What about the MIC [5, 18] of the same molecule?
Answer: The MIC was over 32 µg/mL.

Question: What about the MIC [6, 19] of the same molecule?
Answer: Its MIC is over 32 µg/mL.

Question: For CC[C@@]1(O)CCc2c(O)c3c(c(O)c2[C@H]1O[C@H]1C[C@H](N(C)C)[C@H](O)[C@H](C)O1)C(=O)c1cccc(O)c1C3=O [Compound 5, iremycin], which MIC [2, 20] is on record?
Answer: Its MIC is 8 µg/mL (≈ 15.2 µM).

Question: What about the MIC ([3]; BT01, read-out: MIC values, BT) of the same molecule?
Answer: Its MIC is 16 µg/mL (≈ 30.3 µM).

Question: And the MIC [4, 21]?
Answer: The MIC was 8 µg/mL (≈ 15.2 µM).

Question: And the MIC ([5]; BS01, read-out: MIC values, BS)?
Answer: The MIC was 8 µg/mL (≈ 15.2 µM).

Question: And the MIC [6, 22]?
Answer: The MIC was 8 µg/mL (≈ 15.2 µM).

Question: What about the IC50 [7] of the same molecule?
Answer: Its IC50 is 11.8 µM.

Question: What about the IC50 [8] of the same molecule?
Answer: The IC50 was 9.99 µM.

Question: What about the IC50 [9] of the same molecule?
Answer: Its IC50 is 10.2 µM.

Question: What about the IC50 [10] of the same molecule?
Answer: The IC50 was 29.3 µM.

Question: What about the IC50 [11] of the same molecule?
Answer: The IC50 was 20.3 µM.

Question: And the IC50 [12]?
Answer: The IC50 was 10.7 µM.

Question: What about the IC50 [13] of the same molecule?
Answer: The IC50 was 15.2 µM.

Question: And the IC50 [14, 23]?
Answer: Its IC50 is 13.5 µM.

Question: What about the IC50 [14, 24] of the same molecule?
Answer: Its IC50 is 6.93 µM.

Question: Which results are given for CC[C@@]1(O)CCc2c(O)c3c(c(O)c2[C@H]1O[C@H]1C[C@H](N(C)C)[C@H](O[C@H]2CC[C@H](O[C@H]4CC[C@H](O)[C@H](C)O4)[C@H](C)O2)[C@H](C)O1)C(=O)c1cccc(O)c1C3=O [Compound 3, cosmomycin A]?
Answer: MIC [2, 15]: 0.25 µg/mL (≈ 0.331 µM); MIC [3, 16]: 0.25 µg/mL (≈ 0.331 µM); MIC [4, 17]: 0.06 µg/mL (≈ 0.0794 µM); MIC [5, 18]: 0.5 µg/mL (≈ 0.661 µM); MIC [6, 19]: 0.125 µg/mL (≈ 0.165 µM); IC50 [7]: 0.032 µM; IC50 [8]: 0.15 µM; IC50 [9]: 0.023 µM; IC50 [10]: 0.81 µM; IC50 [11]: 1.36 µM; IC50 [12]: 0.82 µM; IC50 [13]: 0.083 µM; IC50 [14, 23]: 0.31 µM; IC50 [14, 24]: 0.42 µM

Question: Which results are given for CC[C@@]1(O[C@H]2C[C@H](N(C)C)[C@H](O)[C@H](C)O2)CCc2c(O)c3c(c(O)c2[C@H]1O[C@H]1C[C@H](N(C)C)[C@H](O[C@H]2CC[C@H](O[C@H]4CC[C@H](O)[C@H](C)O4)[C@H](C)O2)[C@H](C)O1)C(=O)c1cccc(O)c1C3=O [Compound 1, cytorhodin X]?
Answer: MIC [2, 20]: 2 µg/mL (≈ 2.19 µM); MIC ([3]; BT01, read-out: MIC values, BT): 4 µg/mL (≈ 4.38 µM); MIC [4, 21]: 2 µg/mL (≈ 2.19 µM); MIC ([5]; BS01, read-out: MIC values, BS): 2 µg/mL (≈ 2.19 µM); MIC [6, 22]: 2 µg/mL (≈ 2.19 µM); IC50 [7]: 3.4 µM; IC50 [8]: 2.04 µM; IC50 [9]: 3.04 µM; IC50 [10]: 21.3 µM; IC50 [11]: 18.7 µM; IC50 [12]: 12.7 µM; IC50 [13]: 11.2 µM; IC50 [14, 23]: 4.23 µM; IC50 [14, 24]: 3.5 µM

Question: What does the source list for COc1cccc2c1C(=O)c1c(O)c3c(c(O)c1C2=O)C[C@@](O)(C(C)=O)C[C@@H]3O[C@H]1C[C@H](N)[C@H](O)[C@H](C)O1 [Compound 22, daunorubicin, reference compound]?
Answer: Km [1]: 36.3 µM; kcat [1]: 0.00967 s⁻¹
